These results are taken from ChEMBL document CHEMBL3525974 (Drug Metab Dispos, 2012).

What all share (format): ADME
Data set [1] deals with Liver microsome. The data set can be described thus: Drug metabolism in human liver microsomes treated with lopinavir at 30 uM preincubated for 5 mins prior NADPH addition measured after 50 mins by MS/MS spectroscopy. On the technique in general: Liver microsomes are vesicles of endoplasmic reticulum, rich in cytochrome P450 enzymes.
The test system of data set [2] is Liver microsome. The data set can be described thus: Retention time in human liver microsomes at 30 uM preincubated for 5 mins prior NADPH addition measured after 50 mins by UPLC-TOFMS analysis.
Data set [3] concerns Plasma. The data set can be described thus: Maximum plasma concentration in healthy human at 400 mg. Further details: dose 400 mg.
In data set [4] the test system is Plasma. The data set can be described thus: Maximum plasma concentration in healthy human at 400 mg co-administered with 50 mg ritonavir. The arrangement: dose 400 mg.

For `CC(C)[C@@H](C(=O)N[C@@H](Cc1ccccc1)C[C@H](O)[C@H](Cc1ccccc1)NC(=O)/C=N/NC(N)=O)N1CCCNC1=O`, in data set [1], the Drug metabolism result is listed as “metabolite_detected”. In addition, the Retention_time in data set [2] is recorded as 4.99 min.

With `Cc1cccc(C)c1OCC(=O)N[C@@H](Cc1ccccc1)[C@@H](O)C[C@H](Cc1ccccc1)NC(=O)[C@H](C(C)C)N1CCCNC1=O` [LOPINAVIR], the values for the Cmax in data set [3] and in data set [4] were 100 ng/mL and 5500 ng/mL, respectively.
